The test system of experiment [1] is genotype A, “Long” strain RSV. As to the kind of experiment: RSV-A assay (CPE, ATPlite readout in Hep-2 cells). The experiment is classed as cell-based, Human respiratory syncytial virus. The settings on record: human respiratory syncytial virus, activity class. The procedure, abridged: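 In this cytopathic-effect protection format, infected Hep-2 cultures (MOI 0.1) are exposed to compound for 5 days. Surviving cell ATP is quantified with ATPlite, and EC50 is determined.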
A general note: ATP-based viability assays read luminescence as a measure of living cells.

Experiment [2] deals with HMPV clinical isolate A2 strain TN 94-49. Put plainly: HMPV antiviral assay, Method 2 (LLC-MK2 cells with CP-100-356, ATP-Lite). The settings on record: human metapneumovirus. The experiment is classed as cell-based. In a few lines:
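EC50 comes from a four-parameter fit of percent cell viability (ATP-Lite, normalized to virus-only and cell-only wells) after 7 days at 37 °C. Infection used HMPV A2 TN 94-49 at MOI 0.16 in LLC-MK2 cells, with 2 μM P-gp inhibitor CP-100-356 and 2 μg/mL TPCK-trypsin final; dose range 200 nM top, 2.5-fold, 10 points, duplicate.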

[3] abbreviates: hMPV A2 TN/94-49, LLC-MK2 cells with CP-100-356, Method 2.
[4] abbreviates: 168 h, hMPV A2 TN/94-49, LLC-MK2 cells with 4 μM CP-100-356, 7 days, ATP-Lite.

pEC50: −log10 of the molar value.

Take `COc1cc(C(=O)NC[C@](O)(c2cc3c(c(-c4cc(Cl)c(F)cc4F)n2)OC[C@]3(C)C(N)=O)C2(CF)CC2)cc2cn(C3CC3)nc12` [Example 212]: the pEC50 in experiment [1] was more than 6.70; in experiment [2] (setting [3]) it was less than 6.70.

As for `COc1cc(C(=O)NC[C@](O)(c2cc3c(c(-c4ccn5nccc5c4Cl)n2)OC[C@]3(C)C(N)=O)C2CC2)cc2cn(C3CC3)nc12` [Example 824], the pEC50 in experiment [1] and in experiment [2] (setting [4]) was more than 6.70 throughout.

For the compound `COc1nccc(-c2nc([C@@](O)(CNC(=O)c3cc(OC)c4nn(C5(F)CC5)cc4c3)C3CC3)cc3c2OC[C@]3(C)C(N)=O)c1Cl` [Example 789], the pEC50 in experiment [1] and in experiment [2] (setting [4]) was more than 6.70 throughout.

In the case of `COc1cc(C(=O)NC[C@](O)(c2cc3c(c(-c4ccnc(C(F)F)c4Cl)n2)OC[C@]3(C)C(N)=O)C(F)(F)F)cc2oc(C3CC3)nc12` [Example 550], the pEC50 in experiment [1] and in experiment [2] (setting [3]) was more than 6.70 each time.

As for `COc1cc(C(=O)NC[C@](O)(c2cc3c(c(-n4ccc5c(F)cccc54)n2)OC[C@]3(C)C(N)=O)C2CC2)cn2cc(C3CC3)nc12` [Example 868], the pEC50 in experiment [1] and in experiment [2] (setting [4]) was more than 6.70 each time.

For the compound `COc1cc(C(=O)NC[C@](O)(c2cc3c(c(-n4ccc5c(F)cccc54)n2)OC[C@]3(C)C(N)=O)C2(F)CC2)cc2cn(C3(F)CC3)nc12` [Example 689], the pEC50 in experiment [1] and in experiment [2] (setting [4]) was more than 6.70 each time.

Turning to `COc1cc(C(=O)NC[C@](O)(c2cc3c(c(-c4cc(C(F)(F)F)ncc4F)n2)OC[C@]3(C)C(N)=O)C2CC2)cc2cc(C3CC3)nn12` [Example 661], the pEC50 in experiment [1] and in experiment [2] (setting [4]) was more than 6.70 throughout.

Consider `COc1cc(C(=O)NC[C@](O)(c2cc3c(c(-c4cc(C(F)(F)F)ncc4F)n2)OC[C@]3(C)C(N)=O)C2CC2)cc2cn(C(F)F)nc12` [Example 352], for which the pEC50 in experiment [1] and in experiment [2] (setting [3]) was more than 6.70 throughout.

Turning to `COc1cc(C(=O)NC[C@@](O)(C#CC(C)(C)S(C)(=O)=O)c2cc3c(c(-c4cc(Cl)c(F)cc4F)n2)OC[C@]3(C)C(N)=O)cc2cn(C3CC3)nc12` [Example 341], the pEC50 in experiment [1] is more than 6.70; in experiment [2] (setting [3]), less than 6.70.

Take `COc1cc(C(=O)NC[C@](O)(c2cc3c(c(-c4cc(F)c(F)cc4F)n2)OC[C@]3(C)C(N)=O)C2CC2)cc2cc(Cl)nnc12` [Example 114]: the pEC50 in experiment [1] and in experiment [2] (setting [3]) was more than 6.70 throughout.

In the case of `COc1cc(C(=O)NC[C@@](O)(c2ccccc2)c2cc3c(c(-c4ccnc(F)c4Cl)n2)OC[C@]3(C)C(N)=O)cc2cn(C3(F)CC3)nc12` [Example 344], the pEC50 in experiment [1] and in experiment [2] (setting [3]) was more than 6.70 throughout.

Take `COc1cc(C(=O)NC[C@@](O)(CC#N)c2cc3c(c(-c4cc(Cl)c(F)cc4F)n2)OC[C@]3(C)C(N)=O)cc2cn(C3CC3)nc12` [Example 240]: the pEC50 in experiment [1] is more than 6.70; in experiment [2] (setting [3]), less than 6.70.

On to `COc1cc(C(=O)NC[C@](O)(c2cc3c(c(-c4cc(Cl)ncc4C)n2)OC[C@]3(C)C(N)=O)C2CC2)cc2cn(C3CC3)nc12` [Example 417], for which the negative-log EC50 (pEC50) in experiment [1] and in experiment [2] (setting [3]) was more than 6.70 throughout.

On to `COc1cc(C(=O)NC[C@](O)(c2cc3c(c(-c4ccnc(C(F)F)c4Cl)n2)OC[C@]3(C)C(N)=O)C2CC2)cc2cn(C(F)F)nc12` [Example 785], for which the pEC50 in experiment [1] and in experiment [2] (setting [4]) was more than 6.70 each time.

`COc1cc(C(=O)NC[C@@](O)(c2ccccc2)c2cc3c(c(-n4ncc5c(F)cccc54)n2)OC[C@]3(C)C(N)=O)cc2cn(C3(F)CC3)nc12` [Example 629]: the pEC50 in experiment [1] and in experiment [2] (setting [4]) was more than 6.70 each time.

Take `COC1=CC(C(=O)NC[C@](O)(c2cc3c(c(-c4ccnc(C)c4Cl)n2)OC[C@]3(C)C(N)=O)C2(F)CC2)=CC2OC(C3CC3)=NC12` (some centres unmarked) [Example 526]: the pEC50 in experiment [1] and in experiment [2] (setting [3]) was more than 6.70 each time.

For the compound `COc1cc(C(=O)NC[C@](O)(c2cc3c(c(-c4ccnc(F)c4Cl)n2)OC[C@]3(C)C(N)=O)C2CC2)cc2cn(C3CC3)nc12` [Example 122], the pEC50 in experiment [1] and in experiment [2] (setting [3]) was more than 6.70 in each case.

Consider `COc1cc(C(=O)NC[C@@](O)(c2cccc(F)c2)c2cc3c(c(-c4cc(C(F)(F)F)ncc4F)n2)OC[C@]3(C)C(N)=O)cc2cn(C3CC3)nc12` [Example 408], for which the pEC50 in experiment [1] and in experiment [2] (setting [3]) was more than 6.70 each time.

For the compound `COc1cc(C(=O)NC[C@](O)(c2cc3c(c(-c4ccnc(C(F)(F)F)c4Cl)n2)OC[C@]3(C)C(N)=O)C2CC2)cc2cc(C3CC3)nn12` [Example 579], the pEC50 in experiment [1] and in experiment [2] (setting [3]) was more than 6.70 in each case.

For the compound `COc1cc(C(=O)NC[C@@](O)(c2ccccc2)c2cc3c(c(-c4ccnc(F)c4Cl)n2)OC[C@]3(C)C(N)=O)cc2cc(Cl)cnc12` [Example 346], the pEC50 in experiment [1] and in experiment [2] (setting [3]) was more than 6.70 each time.

Take `COc1cc(C(=O)NC[C@@](O)(c2ccccc2)c2cc3c(c(-c4ccnc(F)c4Cl)n2)OC[C@]3(C)C(N)=O)cc2cn(C3CC3)nc12` [Example 343]: the pEC50 in experiment [1] and in experiment [2] (setting [3]) was more than 6.70 in each case.

As to `COc1cc(C(=O)NC[C@](O)(c2cc3c(c(-c4ccsc4Cl)n2)OC[C@]3(C)C(N)=O)C2CC2)cc2cn(C3CC3)nc12` [Example 415], the pEC50 in experiment [1] and in experiment [2] (setting [3]) was more than 6.70 in each case.

Turning to `COc1cc(C(=O)NC[C@](O)(c2cc3c(c(-c4cc(C(F)(F)F)ncc4F)n2)OC[C@]3(C)C(N)=O)C2CC2)cn2cc(C3CC3)nc12` [Example 662], the pEC50 in experiment [1] and in experiment [2] (setting [4]) was more than 6.70 each time.

Turning to `COc1cc(C(=O)NC[C@](O)(c2cc3c(c(-n4ccc5c(F)cccc54)n2)OC[C@]3(C)C(N)=O)C2(F)CC2)cc2cn(C(F)F)nc12` [Example 688], the pEC50 in experiment [1] and in experiment [2] (setting [4]) was more than 6.70 throughout.

Turning to `COc1cc(C(=O)NC[C@](O)(c2cc3c(c(-c4cccc(F)c4Cl)n2)OC[C@]3(C)C(N)=O)C(F)(F)F)cc2cn(C3(F)CC3)nc12` [Example 611], the negative logarithm of the EC50 (pEC50) in experiment [1] and in experiment [2] (setting [3]) was more than 6.70 throughout.

In the case of `C[C@]1(C(N)=O)COc2c1cc([C@@](O)(CNC(=O)c1cc(OC3CC3)c3ncc(Cl)cc3c1)C1CC1)nc2-c1ccc(F)c(Cl)c1Cl` [Example 321], the pEC50 in experiment [1] and in experiment [2] (setting [3]) was more than 6.70 in each case.

Take `COc1cc(C(=O)NC[C@@](O)(c2ccccc2)c2cc3c(c(-c4ccnc(F)c4Cl)n2)OC[C@]3(C)C(N)=O)cc2oc(C3CC3)nc12` [Example 345]: the pEC50 in experiment [1] and in experiment [2] (setting [3]) was more than 6.70 throughout.

In the case of `COc1cc(C(=O)NC[C@](O)(c2cc3c(c(-n4ccc5c(F)cccc54)n2)OC[C@]3(C)C(N)=O)C2CC2)cc2cn(C(F)F)nc12` [Example 776], the pEC50 in experiment [1] and in experiment [2] (setting [4]) was more than 6.70 throughout.

As to `COc1cc(C(=O)NC[C@@](O)(c2ccccc2)c2cc3c(c(-n4ncc5c(F)cccc54)n2)OC[C@]3(C)C(N)=O)cc2cc(C3CC3)nn12` [Example 630], the pEC50 in experiment [1] and in experiment [2] (setting [4]) was more than 6.70 throughout.

Consider `COc1cc(C(=O)NC[C@](O)(c2cc3c(c(-c4ccc(F)c(Cl)c4Cl)n2)OC[C@]3(C)C(N)=O)C2CC2)cc2cn(C3(F)CC3)nc12` [Example 322], for which the pEC50 in experiment [1] and in experiment [2] (setting [3]) was more than 6.70 in each case.

In the case of `COc1cc(C(=O)NC[C@@](O)(CN(C)C)c2cc3c(c(-c4cc(Cl)c(F)cc4F)n2)OC[C@]3(C)C(N)=O)cc2cn(C3CC3)nc12` [Example 238], the pEC50 in experiment [1] is more than 6.70; in experiment [2] (setting [3]), less than 6.70.

In the case of `COc1cc(C(=O)N(C)C[C@](O)(c2cc3c(c(-c4ccc(F)c(Cl)c4)n2)OC[C@@]3(C(N)=O)C(F)F)C2CC2)cc2cn(C3CC3)nc12` [Example 351], the pEC50 in experiment [1] and in experiment [2] (setting [3]) was less than 6.70 in each case.

As to `C[C@]1(C(N)=O)COc2c1cc([C@@](O)(CNC(=O)c1ccc3nc(C4CC4)oc3c1)C1CC1)nc2-c1cc(C(F)(F)F)c(F)cc1F` [Example 306], the pEC50 in experiment [1] and in experiment [2] (setting [3]) was more than 6.70 throughout.

Take `COc1cc(C(=O)NC[C@](O)(c2cc3c(c(-n4ccc5cc(F)ccc54)n2)OC[C@]3(C)C(N)=O)C(F)(F)F)cc2cn(C3CC3)nc12` [Example 852]: the pEC50 in experiment [1] and in experiment [2] (setting [4]) was more than 6.70 in each case.

As for `COc1nccc(-c2nc([C@@](O)(CNC(=O)c3cc(OC)n4nc(C5CC5)cc4c3)C3CC3)cc3c2OC[C@]3(C)C(N)=O)c1Cl` [Example 582], the pEC50 in experiment [1] and in experiment [2] (setting [3]) was more than 6.70 each time.

As to `COc1cc(C(=O)NC[C@](O)(c2cc3c(c(-c4cc(F)c(F)cc4F)n2)OC[C@]3(C)C(N)=O)C2CC2)cn2cc(C3CC3)nc12` [Example 116], the pEC50 in experiment [1] and in experiment [2] (setting [3]) was more than 6.70 each time.

For the compound `COc1cc(C(=O)NC[C@](O)(c2cc3c(c(-c4ccnc(C(F)F)c4Cl)n2)OC[C@]3(C)C(N)=O)C(F)(F)F)cc2cn(C3(F)CC3)nc12` [Example 548], the pEC50 in experiment [1] and in experiment [2] (setting [3]) was more than 6.70 in each case.

Regarding `COc1cc(C(=O)NC[C@](O)(c2cc3c(c(-c4ccnc(C(F)(F)F)c4Cl)n2)OC[C@]3(C)C(N)=O)C2CC2)cc2oc(C(F)F)nc12` [Example 581], the pEC50 in experiment [1] and in experiment [2] (setting [3]) was more than 6.70 in each case.

Turning to `COc1cc(C(=O)NC[C@](O)(c2cc3c(c(-n4ncc5c(F)cccc54)n2)OC[C@]3(C)C(N)=O)C2CC2)cc2cn(C3CC3)nc12` [Example 820], the pEC50 in experiment [1] and in experiment [2] (setting [4]) was more than 6.70 throughout.

For `COc1cc(C(=O)NC[C@](O)(c2cc3c(c(-c4ccnc(C(F)F)c4Cl)n2)OC[C@]3(C)C(N)=O)C2CC2)cc2oc(C(F)F)nc12` [Example 542], the pEC50 in experiment [1] and in experiment [2] (setting [3]) was more than 6.70 each time.

What is called pEC50 is the negative decadic logarithm of the EC50, by convention in mol/L. Read a high pEC50 as a low EC50.

Values taken from patent publication US20240368174A1, “Antiviral Heterocyclic Compounds” (Enanta Pharmaceuticals, Inc., priority 2023, published 2024).
